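Exposure lasted 48 hours, with cells grown in 96-well plates and compounds tested at five concentrations. The concentration for full growth arrest is given as TGI.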
What was measured:
Experiment in all cases: inhibition of tumour cell growth, NCI panel, 48 h
[1] = system: MDA-N
[2] = system: NCI-H226 lung
[3] = system: SW-620 colon
[4] = system: HCC-2998 colon
[5] = system: MDA-MB-435
[6] = system: TK-10 renal
[7] = system: 786-0 renal
[8] = system: OVCAR-8 ovarian
[9] = system: SN12C renal
[10] = system: HT29 colon
[11] = system: NCI/ADR-RES ovarian
[12] = system: SK-OV-3 ovarian
[13] = system: SK-MEL-28 melanoma
[14] = system: MDA-MB-231 breast
[15] = system: OVCAR-3 ovarian
[16] = system: DU-145 prostate
[17] = system: SF-268 CNS
[18] = system: NCI-H23 lung
[19] = system: SK-MEL-2 melanoma
[20] = system: A498 renal
[21] = system: K-562 leukemia
[22] = system: CAKI-1 renal
[23] = system: HS 578T breast
[24] = system: ACHN renal
[25] = system: UACC-257 melanoma
[26] = system: PC-3 prostate
[27] = system: MALME-3M melanoma
[28] = system: OVCAR-5 ovarian
[29] = system: OVCAR-4 ovarian
[30] = system: A549 NSCLC
[31] = system: T-47D breast
[32] = system: NCI-H460 lung
[33] = system: UACC-62 melanoma
[34] = system: SK-MEL-5 melanoma
[35] = system: HOP-92 NSCLC
[36] = system: UO-31 renal
[37] = system: HL-60(TB) leukemia
[38] = system: SNB-19 CNS
[39] = system: COLO 205 colon
[40] = system: SR leukemia
[41] = system: LOX IMVI melanoma
[42] = system: SF-295 CNS
[43] = system: MCF7 breast
[44] = system: U251 CNS
[45] = system: BT-549 breast
[46] = system: CCRF-CEM leukemia
[47] = system: SF-539 CNS
[48] = system: RPMI-8226 leukemia
[49] = system: HCT-116 colon
[50] = system: M14 melanoma
[51] = system: HCT-15 colon
[52] = system: MOLT-4 leukemia
[53] = system: NCI-H522 lung
[54] = system: KM12 colon
[55] = system: HOP-62 NSCLC
[56] = system: RXF 393 renal
[57] = system: EKVX NSCLC
[58] = system: SNB-75 CNS
[59] = system: IGROV1 ovarian

Compound `Nc1ccc(Nc2cc(=O)[nH]c(=O)[nH]2)cc1Cl` has a TGI [1] greater than 100 µM, a TGI [2] greater than 100 µM and a TGI [3] greater than 100 µM. It also gave a TGI [4] greater than 100 µM, a TGI [5] greater than 100 µM and a TGI [6] greater than 100 µM. The TGI [7] was greater than 100 µM, the TGI [8] was greater than 100 µM and the TGI [9] was greater than 100 µM. For the same compound, the TGI [10] was greater than 100 µM, the TGI [11] was greater than 100 µM and the TGI [12] was greater than 100 µM. The TGI [13] was greater than 100 µM, the TGI [14] was greater than 100 µM and the TGI [15] was greater than 100 µM. For the same compound, the TGI [16] was greater than 100 µM, the TGI [17] was greater than 100 µM and the TGI [18] was greater than 100 µM. For the same compound, the TGI [19] was greater than 100 µM, the TGI [20] was greater than 100 µM and the TGI [21] was greater than 100 µM. The TGI [22] was greater than 100 µM, the TGI [23] was greater than 100 µM and the TGI [24] was greater than 100 µM. It also gave a TGI [25] greater than 100 µM, a TGI [26] greater than 100 µM and a TGI [27] greater than 100 µM. It also gave a TGI [28] greater than 100 µM, a TGI [29] greater than 100 µM and a TGI [30] greater than 100 µM. For the same compound, the TGI [31] was greater than 100 µM, the TGI [32] was greater than 100 µM and the TGI [33] was greater than 100 µM. The TGI [34] was greater than 100 µM, the TGI [35] was greater than 100 µM and the TGI [36] was greater than 100 µM. The TGI [37] was greater than 100 µM, the TGI [38] was greater than 100 µM and the TGI [39] was greater than 100 µM. The TGI [40] was greater than 100 µM, the TGI [41] was greater than 100 µM and the TGI [42] was greater than 100 µM. It also gave a TGI [43] greater than 100 µM, a TGI [44] greater than 100 µM and a TGI [45] greater than 100 µM. The TGI [46] was greater than 100 µM, the TGI [47] was greater than 100 µM and the TGI [48] was greater than 100 µM. The TGI [49] was greater than 100 µM, the TGI [50] was greater than 100 µM and the TGI [51] was greater than 100 µM. The TGI [52] was greater than 100 µM and the TGI [53] was greater than 100 µM.

`COc1cc2c3c([nH]c2c(OC)c1OC)CCN(Cc1ccccc1)C3` gave a TGI [1] of 33.9 µM, a TGI [2] greater than 100 µM and a TGI [3] greater than 100 µM. It also gave a TGI [4] of 34.6 µM, a TGI [5] of 35 µM and a TGI [6] of 78.9 µM. It also gave a TGI [7] greater than 100 µM, a TGI [8] greater than 100 µM and a TGI [9] greater than 100 µM. For the same compound, the TGI [10] was 49.9 µM, the TGI [11] was greater than 100 µM and the TGI [13] was 50.5 µM. The TGI [14] was greater than 100 µM, the TGI [15] was greater than 100 µM and the TGI [16] was greater than 100 µM. The TGI [17] was greater than 100 µM, the TGI [54] was greater than 100 µM and the TGI [18] was greater than 100 µM. The TGI [55] was greater than 100 µM, the TGI [56] was greater than 100 µM and the TGI [19] was 47.1 µM. For the same compound, the TGI [20] was 72.3 µM, the TGI [21] was 84.2 µM and the TGI [22] was greater than 100 µM. The TGI [23] was greater than 100 µM, the TGI [24] was greater than 100 µM and the TGI [25] was 40 µM. It also gave a TGI [26] greater than 100 µM, a TGI [27] of 38.1 µM and a TGI [28] greater than 100 µM. For the same compound, the TGI [29] was greater than 100 µM, the TGI [30] was greater than 100 µM and the TGI [31] was 68.6 µM. The TGI [32] was 63.5 µM, the TGI [33] was greater than 100 µM and the TGI [34] was 34.9 µM. It also gave a TGI [35] of 41.5 µM, a TGI [37] greater than 100 µM and a TGI [38] greater than 100 µM. The TGI [57] was greater than 100 µM, the TGI [39] was 32 µM and the TGI [41] was 32.1 µM. For the same compound, the TGI [42] was greater than 100 µM, the TGI [43] was 41.8 µM and the TGI [44] was 87.4 µM. It also gave a TGI [46] greater than 100 µM, a TGI [47] of 38.5 µM and a TGI [48] of 52.5 µM. It also gave a TGI [49] greater than 100 µM, a TGI [58] greater than 100 µM and a TGI [50] of 30 µM. The TGI [51] was greater than 100 µM, the TGI [52] was greater than 100 µM and the TGI [59] was greater than 100 µM. The TGI [53] was greater than 100 µM.

For `CC(=O)O[C@H]1CC[C@@]2(C)C(=CC[C@@H]3[C@@H]2CC[C@]2(C)c4nc(Cl)ccc4C[C@@H]32)C1`, the TGI [1] was greater than 100 µM, the TGI [2] was greater than 100 µM and the TGI [3] was greater than 100 µM. The TGI [4] was greater than 100 µM, the TGI [5] was greater than 100 µM and the TGI [6] was greater than 100 µM. For the same compound, the TGI [7] was greater than 100 µM, the TGI [8] was greater than 100 µM and the TGI [9] was greater than 100 µM. For the same compound, the TGI [10] was greater than 100 µM, the TGI [11] was greater than 100 µM and the TGI [12] was greater than 100 µM. The TGI [13] was greater than 100 µM, the TGI [14] was greater than 100 µM and the TGI [15] was 69.8 µM. The TGI [16] was greater than 100 µM, the TGI [17] was greater than 100 µM and the TGI [54] was greater than 100 µM. The TGI [18] was 19.4 µM, the TGI [55] was greater than 100 µM and the TGI [56] was greater than 100 µM. For the same compound, the TGI [20] was greater than 100 µM, the TGI [21] was greater than 100 µM and the TGI [22] was greater than 100 µM. It also gave a TGI [24] greater than 100 µM, a TGI [25] greater than 100 µM and a TGI [26] greater than 100 µM. The TGI [27] was greater than 100 µM, the TGI [28] was greater than 100 µM and the TGI [29] was greater than 100 µM. For the same compound, the TGI [30] was greater than 100 µM, the TGI [31] was greater than 100 µM and the TGI [32] was greater than 100 µM. It also gave a TGI [33] of 54.3 µM, a TGI [34] of 96.6 µM and a TGI [35] greater than 100 µM. It also gave a TGI [36] greater than 100 µM, a TGI [37] greater than 100 µM and a TGI [38] greater than 100 µM. The TGI [57] was greater than 100 µM, the TGI [39] was greater than 100 µM and the TGI [40] was greater than 100 µM. For the same compound, the TGI [41] was greater than 100 µM, the TGI [42] was 83.3 µM and the TGI [43] was 62.3 µM. The TGI [44] was greater than 100 µM, the TGI [45] was greater than 100 µM and the TGI [46] was 58.4 µM. The TGI [49] was greater than 100 µM, the TGI [58] was 94 µM and the TGI [50] was greater than 100 µM. For the same compound, the TGI [51] was greater than 100 µM, the TGI [52] was greater than 100 µM and the TGI [59] was greater than 100 µM. The TGI [53] was greater than 100 µM.

`CCCn1c(=O)c(N2CCN(c3ccccc3)CC2)nc2sc3ccccc3c21` showed a TGI [1] greater than 100 µM, a TGI [3] greater than 100 µM and a TGI [5] greater than 100 µM. The TGI [6] was greater than 100 µM, the TGI [7] was greater than 100 µM and the TGI [8] was greater than 100 µM. For the same compound, the TGI [9] was greater than 100 µM, the TGI [10] was greater than 100 µM and the TGI [11] was greater than 100 µM. It also gave a TGI [12] greater than 100 µM, a TGI [13] greater than 100 µM and a TGI [14] greater than 100 µM. It also gave a TGI [15] greater than 100 µM, a TGI [16] greater than 100 µM and a TGI [17] greater than 100 µM. For the same compound, the TGI [54] was greater than 100 µM, the TGI [18] was greater than 100 µM and the TGI [55] was greater than 100 µM. For the same compound, the TGI [19] was greater than 100 µM, the TGI [20] was greater than 100 µM and the TGI [22] was greater than 100 µM. The TGI [23] was greater than 100 µM, the TGI [24] was greater than 100 µM and the TGI [25] was greater than 100 µM. It also gave a TGI [26] greater than 100 µM, a TGI [27] greater than 100 µM and a TGI [28] greater than 100 µM. It also gave a TGI [29] greater than 100 µM, a TGI [30] greater than 100 µM and a TGI [31] greater than 100 µM. The TGI [32] was greater than 100 µM, the TGI [33] was greater than 100 µM and the TGI [34] was greater than 100 µM. It also gave a TGI [35] greater than 100 µM, a TGI [36] greater than 100 µM and a TGI [37] greater than 100 µM. For the same compound, the TGI [38] was greater than 100 µM, the TGI [57] was greater than 100 µM and the TGI [39] was greater than 100 µM. It also gave a TGI [41] greater than 100 µM, a TGI [42] greater than 100 µM and a TGI [43] greater than 100 µM. The TGI [44] was greater than 100 µM, the TGI [45] was greater than 100 µM and the TGI [46] was greater than 100 µM. For the same compound, the TGI [47] was greater than 100 µM, the TGI [49] was greater than 100 µM and the TGI [58] was greater than 100 µM. It also gave a TGI [50] greater than 100 µM, a TGI [51] greater than 100 µM and a TGI [52] greater than 100 µM. The TGI [59] was greater than 100 µM and the TGI [53] was greater than 100 µM.

From PubChem BioAssay (NCI)
